According to patent publication US7354910B2, “Agent for treating inflammatory bowel diseases” (Seikagaku Kogyo Kabushiki Kaisha, priority 2001, dated 2008):

System: trinitrobenzenesulfonic acid (TNBS)-induced inflammatory bowel disease model
Assay: Effect of HA on TNBS-induced inflammatory bowel disease model
Type: in vivo, rat
Description: An inflammatory bowel disease model was prepared by carrying out irrigation of colon of a rat with 0.5 ml of 50 mg/ml TNBS (50% ethanol solution). The TNBS-induced inflammatory bowel disease model is a generally used model which has been established as an induced inflammatory bowel disease model (e.g., see GASTROENTEROLOGY, Vol. 109, No. 4, pp. 1344-1367 (1995), and the like).
In order to examine effect of HA on inflammatory bowel diseases, the following drug effect and pharmacological test was carried out using the inflammatory bowel disease model prepared in the above.
The inflammatory bowel disease model animals were divided into the following groups according to respective tested substances, and 2 ml of physiological saline solution (0.3% (w/v)) of each of the following tested substances was injected into the tail vein of each experimental animal.
In the control group, the first administration was carried out just after the preparation of the above model, and then the administration was continuously carried out once a day for 20 days.
In the HA post-administered group, the first administration was carried out just after the preparation of the above model, and then the administration was continuously carried out once a day for 20 days.
In the HA pre-administered group, the first administration was carried out 24 hours before the preparation of the above model, and then the administration was continuously carried out once a day for 20 days.
During the administration period of tested substances, surviving conditions of the animals were observed every day.
In addition, observation and measurement of the following points were carried out on the animals survived on the 20th day after the first administration.
Also, the following numerical values are expressed as “average value±standard error”.
The large intestine was excised and cut open, and the contents were washed using physiological saline. After the adhered moisture was removed, the weight of the large intestine tissue was measured to calculate the weight per 1 cm bowel tissue. Also, the following numerical values are expressed as “average value±standard error”.
Section samples of bowel tissue were prepared and observed under a light microscope.

[1] = HA post-administered group in comparison with the control group, 20th day, light microscope, FIG. 3

Substance: sodium hyaluronate [HA]
- conditions of diarrhea (HA administered groups, animals survived on the 20th day after the first administration, severe in control group): hardly observed
- cell infiltration, microscopic observation of bowel tissue [1]: inhibited significantly
- edema, microscopic observation of bowel tissue [1]: significantly alleviated
- body weight (average value±standard error) (HA post-administered group, 20th day after the first administration, control 175 ± 4 g, p<0.001): 203 ± 3 g
- weight of the large intestine tissue per 1 cm bowel tissue (bowel tissue edema; average value±standard error) (HA post-administered group, 20th day after the first administration, control 448 ± 60, p<0.001): 51 ± 1 mg/cm bowel tissue
- survival ratio (HA pre-administered group (first administration 24 hours before model preparation, 2 ml of 0.3% (w/v) into tail vein once a day), after a lapse of 200 hours): 100%
- survival rate in comparison with the control group (each of the HA administered groups (post and pre), 2 ml of 0.3% (w/v) i.v. once a day for 20 days, p=0.0086 Logrank test, FIG. 1): significantly improved
